In publication PMC10224544, “Synthesis, Structural Elucidation and Pharmacological Applications of Cu(II) Heteroleptic Carboxylates” (Pharmaceuticals, 2023):

Assays:
[1] = DPPH scavenging assay; conditions: for DPPH Free Radical Scavenging Ability: mean ± S.E.M, n = 3
Text: The antioxidant potential of the free acids and their Cu(II) carboxylates was explored via the DPPH method using ascorbic acid as a reference. The DPPH, with a single unpaired electron, is capable of accepting a hydrogen or electron and gives a strong absorption at 517 nm. The absorption generally decreases when it accepts a hydrogen or electron from an antioxidant, forming a stable molecule. The results given in Table 5 indicate that the compounds under study show a moderate level of antioxidant potential. This activity may be attributed to the various structural and electronic factors like coordination geometry, redox properties, chelate ring size, degree of unsaturation, etc.. The transfer of proton or electron from an antioxidant to DPPH results in the formation of species that undergo other reactions like coupling, fragmentation, and addition, which affect the rate and stoichiometry of the reaction.
The compounds under study were subjected to DPPH scavenging ability test as per cited literature. A 0.004% solution of reagent DPPH was added to the different concentrations of tested compounds (i.e., 125, 250, 500 and 1000 μg/mL) and the reaction mixture was incubated subsequently for about thirty minutes in dark. Ascorbic acid was used as positive control. The UV-3000 O.R.I. Germany was used to record the change in absorption of the reaction mixture at 517 nm and the percentage scavenging ability of the compounds under study was determined using formula: % scavenging activity =Absorbance of control−Absorbance of compounds /Absorbance of control×100
The experiments were repeated thrice. The GraphPad Prism® (version 4.0, Sandiego, CA, USA) was used to calculate the IC50 values.

[2] = Hydrogen peroxide scavenging assay; conditions: for H2O2 free radical scavenging ability: mean ± S.E.M, n = 3
Method: In addition to DPPH the ligand acids and their complexes were also evaluated for their peroxide scavenging ability test. Hydrogen peroxide (H2O2) is a biologically important, non-radical reactive oxygen species (ROS) that can influence several cellular processes. It is a weak oxidizing agent and can inactivate a few enzymes directly, usually via oxidation of essential thiol (-SH) groups. It can cross cell membranes rapidly, and inside the cell, H2O2 probably reacts with Fe^2+ (and possibly Cu^2+) ions to form the hydroxyl radical, which may be the origin of many of its toxic effects. It is, therefore, biologically advantageous for cells to control the amount of hydrogen peroxide that is allowed to accumulate.
The ligand acids and their Cu(II) carboxylates were further subjected to H2O2 scavenging ability test potential by following the procedure as per cited literature. A 2 mM solution of H2O2 was made in 50 mM phosphate buffer having a pH 7.4. In the next step, 0.1 mL of the screened compounds was added to the 0.3 mL (50 mM) of phosphate buffer, then 0.6 mL of H2O2 was added and the solution was vortexed. After following the incubation period of 10 min, the absorption was 230 nm in comparison to the blank.

[3] = biological target: acetylcholinesterase (AChE) (Electrophorus electricus, UniProt O42275); assay: biochemical; type: biochemical; conditions: for Inhibition of Acetylcholinesterase (%AChE Activity): n = 3
Method: The synthesized compounds were evaluated for acetylcholinesterase (ACh) and butyrylcholinesterase (BCh) enzyme inhibitory activities.
(§1) The enzymes acetylcholinesterase (AChE) and butyrylcholinesterase (BChE) play an important role in the transfer of signals and physiological function. They assist acetylcholine to hydrolyze and produce choline and acetyl group in synaptic region. So, they are considered as targets in the management of Alzheimer’s disease. Herein, the compounds under study were evaluated for their potential to inhibit acetylthiocholine iodide (AChI) and butyrylthiocholine iodide (BChI) enzymes.
(§2) The well-known Ellman’s assay was implemented to evaluate the inhibitory potential using acetylthiocholine iodide (AChI) and butyrylthiocholine iodide (BChI) as substrates, respectively. The basic principle of the assay is the hydrolysis of acetylthiocholine iodide and butyrylthiocholine iodide by their corresponding enzymes, resulting in the formation of 5-thio-2-nitrobenzoate anion.
(§3) To carry out the assay, 0.1 M buffer solution with pH 8 was prepared as per the cited literature where the pH was adjusted using KOH (potassium hydroxide). Using the freshly prepared buffer and following the dilution, final concentrations of 0.03 U/mL for AChE (518 U/mg solid) and 0.01 U/mL for BChE (7–16 U/mg) were obtained. […] After that, the final solution of each of the AChE and BChE was prepared in distilled water in the presence of […] DTNB and were stored at 8 °C. The experiment was performed by taking 205 µL of inhibitor (tested compound) along with 5 µL of prepared solutions of enzymes, followed by the addition of 5 μL DTNB reagent. They were then incubated for about 15 min in a water bath at a temperature of 30 °C. Later on, 5 µL substrate solution was added to them which were subjected to absorption check at 412 nm. […] The temperature of the spectrophotometer was adjusted at 30 °C and then, following the reaction time of 4 min, the absorbance values were noted after regular intervals. The experiment was repeated, and change in absorption with time was used to calculate the percentage activity of enzyme and enzyme inhibitor [59]. The p values, or calculated probability levels, are categorized as: 5% (p < 0.05), 1% (p < 0.01) and 0.1% (p < 0.001). p < 0.05 means statistically significant and p < 0.001 means highly statistically significant.

[4] = biological target: butyrylcholinesterase (BChE) (Equus caballus, UniProt P81908); assay: biochemical; conditions: for inhibition of butyrylcholinesterase (% BChE activity): n = 3
Method: as §1, §2, §3

[5] = DPPH scavenging assay; conditions: Comp. Conc. 62.5 µg/mL; mean ± S.E.M, n = 3

Sequence of butyrylcholinesterase (BChE) (P81908 whole entry): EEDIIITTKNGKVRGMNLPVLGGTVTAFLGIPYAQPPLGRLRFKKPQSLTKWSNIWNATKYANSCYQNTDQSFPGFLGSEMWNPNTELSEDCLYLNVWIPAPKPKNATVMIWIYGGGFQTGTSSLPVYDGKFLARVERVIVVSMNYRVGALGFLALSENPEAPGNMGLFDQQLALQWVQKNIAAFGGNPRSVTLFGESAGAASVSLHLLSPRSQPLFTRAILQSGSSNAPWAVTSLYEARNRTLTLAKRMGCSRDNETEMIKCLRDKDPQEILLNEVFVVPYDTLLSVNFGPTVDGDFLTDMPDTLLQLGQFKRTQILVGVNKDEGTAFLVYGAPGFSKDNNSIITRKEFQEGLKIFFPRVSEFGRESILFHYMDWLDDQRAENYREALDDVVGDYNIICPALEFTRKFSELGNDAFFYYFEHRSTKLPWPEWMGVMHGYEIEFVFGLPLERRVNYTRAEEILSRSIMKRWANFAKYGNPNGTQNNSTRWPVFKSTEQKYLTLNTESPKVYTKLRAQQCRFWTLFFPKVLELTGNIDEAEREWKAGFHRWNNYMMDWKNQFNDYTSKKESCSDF
Sequence of acetylcholinesterase (AChE) (O42275 24-633): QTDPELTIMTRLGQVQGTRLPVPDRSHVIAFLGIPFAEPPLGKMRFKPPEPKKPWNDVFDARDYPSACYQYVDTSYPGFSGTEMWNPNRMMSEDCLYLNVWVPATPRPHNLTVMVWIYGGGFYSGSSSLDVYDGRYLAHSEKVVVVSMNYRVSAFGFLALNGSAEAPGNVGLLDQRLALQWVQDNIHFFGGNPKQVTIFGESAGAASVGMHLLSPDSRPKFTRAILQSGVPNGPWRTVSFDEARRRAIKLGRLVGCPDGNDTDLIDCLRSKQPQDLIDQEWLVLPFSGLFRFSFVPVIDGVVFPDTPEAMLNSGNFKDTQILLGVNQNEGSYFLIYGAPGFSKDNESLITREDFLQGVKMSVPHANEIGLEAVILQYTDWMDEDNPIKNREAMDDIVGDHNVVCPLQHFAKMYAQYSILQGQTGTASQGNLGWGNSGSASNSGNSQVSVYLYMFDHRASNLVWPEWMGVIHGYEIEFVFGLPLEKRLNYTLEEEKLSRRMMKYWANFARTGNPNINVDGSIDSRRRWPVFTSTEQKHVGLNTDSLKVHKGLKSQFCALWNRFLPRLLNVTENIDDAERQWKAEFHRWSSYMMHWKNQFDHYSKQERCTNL

O=C([O-])Cc1ccccc1Cl.O=C([O-])Cc1ccccc1Cl.O=C([O-])Cc1ccccc1Cl.O=C([O-])Cc1ccccc1Cl.Oc1ccncc1.Oc1ccncc1.[Cu+2].[Cu+2] [Complex 3, Cun(2-ClC6H4COO)4(4-OHPy)2]
IC50, DPPH Free Radical Scavenging Ability [1]: 21.72 µg/mL | DPPH Free Radical Scavenging Ability ([1]; Comp. Conc. 125 µg/mL): 62.50 ± 0.44 % | DPPH Free Radical Scavenging Ability ([1]; Comp. Conc. 250 µg/mL): 66.33 ± 0.33 % | DPPH Free Radical Scavenging Ability ([1]; Comp. Conc. 500 µg/mL): 74.66 ± 1.20 % | DPPH Free Radical Scavenging Ability ([1]; Comp. Conc. 1000 µg/mL): 79.00 ± 0.16 % | IC50, H2O2 free radical scavenging ability [2]: 11.47 µg/mL | H2O2 free radical scavenging ability ([2]; Comp. Conc. 62.5 µg/mL): 61.30 ± 0.52 % | H2O2 free radical scavenging ability ([2]; Comp. Conc. 125 µg/mL): 66.37 ± 0.58 % | H2O2 free radical scavenging ability ([2]; Comp. Conc. 250 µg/mL): 72.29 ± 0.43 % | H2O2 free radical scavenging ability ([2]; Comp. Conc. 500 µg/mL): 78.58 ± 0.56 % | H2O2 free radical scavenging ability ([2]; Comp. Conc. 1000 µg/mL): 84.39 ± 0.60 % | IC50, Inhibition of Acetylcholinesterase [3]: 17 µg/mL | Inhibition of Acetylcholinesterase (%AChE Activity) ([3]; Comp. Conc. 62.5 µg/mL): 62.98 ± 0.72 % | Inhibition of Acetylcholinesterase (%AChE Activity) ([3]; Comp. Conc. 125 µg/mL): 67.90 ± 0.96 % | Inhibition of Acetylcholinesterase (%AChE Activity) ([3]; Comp. Conc. 250 µg/mL): 72.91 ± 0.88 % | Inhibition of Acetylcholinesterase (%AChE Activity) ([3]; Comp. Conc. 500 µg/mL): 77.08 ± 0.47 % | Inhibition of Acetylcholinesterase (%AChE Activity) ([3]; Comp. Conc. 1000 µg/mL): 81.03 ± 0.35 % | IC50, inhibition of butyrylcholinesterase [4]: 25 µg/mL | inhibition of butyrylcholinesterase (% BChE activity) ([4]; Comp. Conc. 62.5 µg/mL): 60.2 ± 0.98 % | inhibition of butyrylcholinesterase (% BChE activity) ([4]; Comp. Conc. 125 µg/mL): 63.3 ± 1.10 % | inhibition of butyrylcholinesterase (% BChE activity) ([4]; Comp. Conc. 250 µg/mL): 68.2 ± 0.88 % | inhibition of butyrylcholinesterase (% BChE activity) ([4]; Comp. Conc. 500 µg/mL): 73.2 ± 0.98 % | inhibition of butyrylcholinesterase (% BChE activity) ([4]; Comp. Conc. 1000 µg/mL): 76.8 ± 1.20 % | DPPH Free Radical Scavenging Ability [5]: 53.00 ± 0.57 %

N#Cc1ccncc1.N#Cc1ccncc1.O=C([O-])Cc1ccccc1Cl.O=C([O-])Cc1ccccc1Cl.O=C([O-])Cc1ccccc1Cl.O=C([O-])Cc1ccccc1Cl.[Cu+2].[Cu+2] [Complex 2, Cu2(2-ClC6H4COO)4(4-CNPy)2]
IC50, DPPH Free Radical Scavenging Ability [1]: 3.22 µg/mL | DPPH Free Radical Scavenging Ability ([1]; Comp. Conc. 125 µg/mL): 81.20 ± 0.65 ^⸙ % | DPPH Free Radical Scavenging Ability ([1]; Comp. Conc. 250 µg/mL): 86.98 ± 0.85 % | DPPH Free Radical Scavenging Ability ([1]; Comp. Conc. 500 µg/mL): 91.17 ± 0.53 % | DPPH Free Radical Scavenging Ability ([1]; Comp. Conc. 1000 µg/mL): 95.20 ± 0.15 % | IC50, H2O2 free radical scavenging ability [2]: 4.50 µg/mL | H2O2 free radical scavenging ability ([2]; Comp. Conc. 62.5 µg/mL): 74.17 ± 0.72 % | H2O2 free radical scavenging ability ([2]; Comp. Conc. 125 µg/mL): 79.60 ± 0.90 ^⸸ % | H2O2 free radical scavenging ability ([2]; Comp. Conc. 250 µg/mL): 85.50 ± 0.40 % | H2O2 free radical scavenging ability ([2]; Comp. Conc. 500 µg/mL): 89.37 ± 1.65 % | H2O2 free radical scavenging ability ([2]; Comp. Conc. 1000 µg/mL): 93.55 ± 0.40 % | IC50, Inhibition of Acetylcholinesterase [3]: 2 µg/mL | Inhibition of Acetylcholinesterase (%AChE Activity) ([3]; Comp. Conc. 62.5 µg/mL): 71.73 ± 0.66 % | Inhibition of Acetylcholinesterase (%AChE Activity) ([3]; Comp. Conc. 125 µg/mL): 73.70 ± 0.35 ^⸙ % | Inhibition of Acetylcholinesterase (%AChE Activity) ([3]; Comp. Conc. 250 µg/mL): 78.07 ± 0.62 ^⸸ % | Inhibition of Acetylcholinesterase (%AChE Activity) ([3]; Comp. Conc. 500 µg/mL): 83.01 ± 0.42 ^⸸ % | Inhibition of Acetylcholinesterase (%AChE Activity) ([3]; Comp. Conc. 1000 µg/mL): 87.50 ± 2.26 ^⸙ % | IC50, inhibition of butyrylcholinesterase [4]: 04 µg/mL | inhibition of butyrylcholinesterase (% BChE activity) ([4]; Comp. Conc. 62.5 µg/mL): 66.29 ± 0.43 % | inhibition of butyrylcholinesterase (% BChE activity) ([4]; Comp. Conc. 125 µg/mL): 67.23 ± 0.44 % | inhibition of butyrylcholinesterase (% BChE activity) ([4]; Comp. Conc. 250 µg/mL): 72.83 ± 1.07 % | inhibition of butyrylcholinesterase (% BChE activity) ([4]; Comp. Conc. 500 µg/mL): 76.87 ± 0.39 % | inhibition of butyrylcholinesterase (% BChE activity) ([4]; Comp. Conc. 1000 µg/mL): 81.44 ± 0.09 % | DPPH Free Radical Scavenging Ability [5]: 77.80 ± 0.37 ^⸙ %

N#Cc1cccnc1.N#Cc1cccnc1.O=C([O-])Cc1ccccc1Cl.O=C([O-])Cc1ccccc1Cl.O=C([O-])Cc1ccccc1Cl.O=C([O-])Cc1ccccc1Cl.[Cu+2].[Cu+2] [Complex 1, Cu2(2-ClC6H4COO)4(3-CNPy)2]
IC50, DPPH Free Radical Scavenging Ability [1]: 17.69 µg/mL | DPPH Free Radical Scavenging Ability ([1]; Comp. Conc. 125 µg/mL): 61.40 ± 0.51 % | DPPH Free Radical Scavenging Ability ([1]; Comp. Conc. 250 µg/mL): 67.44 ± 0.55 % | DPPH Free Radical Scavenging Ability ([1]; Comp. Conc. 500 µg/mL): 73.47 ± 0.52 % | DPPH Free Radical Scavenging Ability ([1]; Comp. Conc. 1000 µg/mL): 78.39 ± 0.49 % | H2O2 free radical scavenging ability ([2]; Comp. Conc. 62.5 µg/mL): 53.50 ± 0.73 % | H2O2 free radical scavenging ability ([2]; Comp. Conc. 125 µg/mL): 62.42 ± 0.57 % | H2O2 free radical scavenging ability ([2]; Comp. Conc. 250 µg/mL): 70.32 ± 0.52 % | H2O2 free radical scavenging ability ([2]; Comp. Conc. 500 µg/mL): 74.27 ± 0.57 % | H2O2 free radical scavenging ability ([2]; Comp. Conc. 1000 µg/mL): 80.30 ± 0.64 % | IC50, Inhibition of Acetylcholinesterase [3]: 39 µg/mL | Inhibition of Acetylcholinesterase (%AChE Activity) ([3]; Comp. Conc. 62.5 µg/mL): 55.67 ± 0.61 % | Inhibition of Acetylcholinesterase (%AChE Activity) ([3]; Comp. Conc. 125 µg/mL): 62.69 ± 0.77 % | Inhibition of Acetylcholinesterase (%AChE Activity) ([3]; Comp. Conc. 250 µg/mL): 67.83 ± 0.56 % | Inhibition of Acetylcholinesterase (%AChE Activity) ([3]; Comp. Conc. 500 µg/mL): 72.60 ± 0.80 % | Inhibition of Acetylcholinesterase (%AChE Activity) ([3]; Comp. Conc. 1000 µg/mL): 77.61 ± 0.77 % | IC50, inhibition of butyrylcholinesterase [4]: 12 µg/mL | inhibition of butyrylcholinesterase (% BChE activity) ([4]; Comp. Conc. 62.5 µg/mL): 64.53 ± 0.71 % | inhibition of butyrylcholinesterase (% BChE activity) ([4]; Comp. Conc. 125 µg/mL): 68.51 ± 0.77 % | inhibition of butyrylcholinesterase (% BChE activity) ([4]; Comp. Conc. 250 µg/mL): 71.75 ± 0.58 % | inhibition of butyrylcholinesterase (% BChE activity) ([4]; Comp. Conc. 500 µg/mL): 76.45 ± 0.49 % | inhibition of butyrylcholinesterase (% BChE activity) ([4]; Comp. Conc. 1000 µg/mL): 81.79 ± 0.62 % | DPPH Free Radical Scavenging Ability [5]: 55.57 ± 0.84 %
